Source: the NIST ThermoML archive (doi:10.1016/j.jct.2018.08.014)
Numbers after ± are expanded uncertainties.

Assays:
[1] = Crystal; DSC
[2] = molar heat capacity at constant pressure; settings: 101.33 kPa, Liquid, DSC

CCCCCCCC(=O)OCCCC [butyl octanoate]
Settings | Triple point temperature [K]
[1] | 230 ± 2

[2]
Settings | molar heat capacity at constant pressure [J/K/mol]
241 K | 387.43 ± 41
243 K | 387.43 ± 41
245 K | 386.6 ± 41
247 K | 386.6 ± 41
249 K | 386.6 ± 41
251 K | 386.6 ± 41
253 K | 386.6 ± 41
255 K | 387.43 ± 41
257 K | 388.26 ± 42
259 K | 387.43 ± 41
261 K | 387.43 ± 41
263 K | 386.6 ± 41
265 K | 386.6 ± 41
267 K | 386.6 ± 41
269 K | 386.6 ± 41
271 K | 386.6 ± 41
273 K | 386.6 ± 41
275 K | 386.6 ± 41
277 K | 386.6 ± 41
279 K | 388.26 ± 42
281 K | 389.1 ± 42
283 K | 390.76 ± 42
285 K | 391.59 ± 42
287 K | 391.59 ± 42
289 K | 393.25 ± 42
291 K | 394.08 ± 42
293 K | 394.92 ± 42
295 K | 395.75 ± 42
297 K | 396.58 ± 42
298 K | 397.41 ± 42
299 K | 397.41 ± 42
301 K | 398.24 ± 42
303 K | 399.07 ± 42

CCCCCCCCCC(=O)OCC [ethyl decanoate]
Settings | Triple point temperature [K]
[1] | 252 ± 2

[2]
Settings | molar heat capacity at constant pressure [J/K/mol]
263 K | 375.79 ± 40
265 K | 375.79 ± 40
267 K | 375.79 ± 40
269 K | 375.79 ± 40
271 K | 375.79 ± 40
273 K | 374.96 ± 40
275 K | 374.13 ± 40
277 K | 374.96 ± 40
279 K | 376.62 ± 40
281 K | 378.29 ± 40
283 K | 379.12 ± 40
285 K | 379.95 ± 40
287 K | 379.95 ± 40
289 K | 380.78 ± 41
291 K | 380.78 ± 41
293 K | 381.61 ± 41
295 K | 382.44 ± 41
297 K | 383.28 ± 41
298 K | 383.28 ± 41
299 K | 384.11 ± 41
301 K | 385.77 ± 41
303 K | 385.77 ± 41

CCCCCCOC(=O)CCCCC [hexanoic acid, hexyl ester]
Settings | Triple point temperature [K]
[1] | 217 ± 2

[2]
Settings | molar heat capacity at constant pressure [J/K/mol]
227 K | 390.76 ± 42
229 K | 387.43 ± 41
231 K | 385.77 ± 41
233 K | 384.94 ± 41
235 K | 384.11 ± 41
237 K | 384.11 ± 41
239 K | 383.28 ± 41
241 K | 383.28 ± 41
243 K | 383.28 ± 41
245 K | 383.28 ± 41
247 K | 383.28 ± 41
249 K | 383.28 ± 41
251 K | 383.28 ± 41
253 K | 383.28 ± 41
255 K | 384.11 ± 41
257 K | 384.94 ± 41
259 K | 384.94 ± 41
261 K | 384.94 ± 41
263 K | 385.77 ± 41
265 K | 385.77 ± 41
267 K | 385.77 ± 41
269 K | 385.77 ± 41
271 K | 385.77 ± 41
273 K | 384.94 ± 41
275 K | 384.94 ± 41
277 K | 385.77 ± 41
279 K | 386.6 ± 41
281 K | 387.43 ± 41
283 K | 389.1 ± 42
285 K | 389.93 ± 42
287 K | 390.76 ± 42
289 K | 392.42 ± 42
291 K | 392.42 ± 42
293 K | 393.25 ± 42
295 K | 394.08 ± 42
297 K | 394.92 ± 42
298 K | 394.92 ± 42
299 K | 394.92 ± 42
301 K | 396.58 ± 42
303 K | 397.41 ± 42

CCCCCCCCCCC(=O)OC [methyl undecanoate]
Settings | Triple point temperature [K]
[1] | 262 ± 2

[2]
Settings | molar heat capacity at constant pressure [J/K/mol]
273 K | 381.61 ± 41
275 K | 381.61 ± 41
277 K | 384.11 ± 41
279 K | 380.78 ± 41
281 K | 381.61 ± 41
283 K | 382.44 ± 41
285 K | 382.44 ± 41
287 K | 385.77 ± 41
289 K | 384.11 ± 41
291 K | 384.11 ± 41
293 K | 384.94 ± 41
295 K | 384.94 ± 41
297 K | 385.77 ± 41
298 K | 389.1 ± 42
299 K | 385.77 ± 41
301 K | 386.6 ± 41
303 K | 389.93 ± 42

CCCCCCCCOC(=O)CCC [octyl butanoate]
Settings | Triple point temperature [K]
[1] | 218 ± 2

[2]
Settings | molar heat capacity at constant pressure [J/K/mol]
227 K | 380.78 ± 41
229 K | 379.12 ± 40
231 K | 379.12 ± 40
233 K | 378.29 ± 40
235 K | 376.62 ± 40
237 K | 376.62 ± 40
239 K | 375.79 ± 40
241 K | 374.96 ± 40
243 K | 374.13 ± 40
245 K | 373.3 ± 40
247 K | 373.3 ± 40
249 K | 372.47 ± 40
251 K | 372.47 ± 40
253 K | 372.47 ± 40
255 K | 372.47 ± 40
257 K | 373.3 ± 40
259 K | 372.47 ± 40
261 K | 373.3 ± 40
263 K | 373.3 ± 40
265 K | 373.3 ± 40
267 K | 374.13 ± 40
269 K | 374.13 ± 40
271 K | 374.13 ± 40
273 K | 373.3 ± 40
275 K | 373.3 ± 40
277 K | 373.3 ± 40
279 K | 374.13 ± 40
281 K | 375.79 ± 40
283 K | 376.62 ± 40
285 K | 377.46 ± 40
287 K | 378.29 ± 40
289 K | 379.12 ± 40
291 K | 379.95 ± 40
293 K | 380.78 ± 41
295 K | 381.61 ± 41
297 K | 383.28 ± 41
298 K | 383.28 ± 41
299 K | 384.11 ± 41
301 K | 385.77 ± 41
303 K | 385.77 ± 41
